ChEMBL document CHEMBL1123604 (J Med Chem, 1987)
Blank lines part the entries; values can stand above or below the molecule they belong to.

What was measured:
Canis familiaris [1] = test: Myocardial contractility in anesthetized dog by intravenous dose; assay type: functional; conditions: Canis lupus familiaris, Myocardium
Canis familiaris [2] = test: Change in mean arterial blood pressure(MAP) in anesthetized dog; assay type: functional, Canis lupus familiaris, Artery
Canis familiaris [3] = test: Change in heart rate(HR) in anesthetized dog; assay type: functional, Canis lupus familiaris
[4] = Inhibition of Guinea Pig cAMP specific phosphodiesterase (PDE III)
Canis familiaris [5] = test: Increased myocardial contractility (dP/dt max) in anesthetized dog at 2 mg/kg; assay type: functional, Canis lupus familiaris, Myocardium
Canis familiaris [6] = test: Percent change in blood pressure in anesthetized dog at 0.01 mg/kg; assay type: functional, Canis lupus familiaris
Canis familiaris [7] = test: Increased myocardial contractility (dP/dt max) in anesthetized dog at 8 mg/kg; assay type: functional, Canis lupus familiaris, Myocardium
Canis familiaris [8] = test: Percent change of heart rate in anesthetized dog at 0.31 mg/kg; assay type: functional, Canis lupus familiaris
Canis familiaris [9] = test: Percent change in blood pressure in anesthetized dog at 1 mg/kg; assay type: functional, Canis lupus familiaris
Canis familiaris [10] = test: Percent change of ventricular pressure in anesthetized dog at 0.01 mg/kg; assay type: functional, Canis lupus familiaris, Cardiac ventricle
Canis familiaris [11] = test: Percent change in ventricular pressure in anesthetized dog at 0.1 mg/kg; assay type: functional, Canis lupus familiaris, Cardiac ventricle
Canis familiaris [12] = test: Percent change in blood pressure in anesthetized dog at 0.031 mg/kg; assay type: functional, Canis lupus familiaris
Canis familiaris [13] = test: Percent change in heart rate in anesthetized dog at 0.031 mg/kg; assay type: functional, Canis lupus familiaris
Canis familiaris [14] = test: Percent change of ventricular pressure in anesthetized dog at 1 mg/kg; assay type: functional, Canis lupus familiaris, Cardiac ventricle
Canis familiaris [15] = test: Increased myocardial contractility (dP/dt max) in conscious dog at 1 mg/kg peroral dose; assay type: functional, Canis lupus familiaris, Myocardium; conditions: route oral
Canis familiaris [16] = test: Percent change in blood pressure in anesthetized dog at 0.31 mg/kg; assay type: functional, Canis lupus familiaris
Canis familiaris [17] = test: Percent change of ventricular pressure in anesthetized dog at 0.31 mg/kg; assay type: functional, Canis lupus familiaris, Cardiac ventricle
Canis familiaris [18] = test: Percent change of heart rate in anesthetized dog at 0.01 mg/kg; assay type: functional, Canis lupus familiaris
Canis familiaris [19] = test: Percent change of heart rate in anesthetized dog at 0.1 mg/kg; assay type: functional, Canis lupus familiaris
Canis familiaris [20] = test: Percent change of heart rate in anesthetized dog at 1 mg/kg; assay type: functional, Canis lupus familiaris
Canis familiaris [21] = test: Percent change in ventricular pressure in anesthetized dog at 0.031 mg/kg; assay type: functional, Canis lupus familiaris, Cardiac ventricle
Canis familiaris [22] = test: Increased myocardial contractility (dP/dt max) in conscious dog at 0.31 mg/kg peroral dose, range 10-20; assay type: functional, Canis lupus familiaris, Myocardium; conditions: route oral
Canis familiaris [23] = test: Percent change in blood pressure in anesthetized dog at 0.1 mg/kg; assay type: functional, Canis lupus familiaris
Canis familiaris [24] = test: Increased myocardial contractility (dP/dt max) in anesthetized dog
[25] = Inhibition of Guinea Pig cAMP specific phosphodiesterase (PDE III); remark: listed apart in the source
Canis familiaris [26] = test: Increased myocardial contractility (dP/dt max) in anesthetized dog at 6 mg/kg; assay type: functional, Canis lupus familiaris, Myocardium
Canis familiaris [27] = test: Percent change of ventricular pressure in anesthetized dog at 0.031 mg/kg; assay type: functional, Canis lupus familiaris, Cardiac ventricle
Canis familiaris [28] = test: Percent change of ventricular pressure in anesthetized dog at 0.1 mg/kg; assay type: functional, Canis lupus familiaris, Cardiac ventricle
Canis familiaris [29] = test: Increased contractility (dP/dt max) in Conscious dog at peroral dose of 0.31 mg/kg; assay type: functional, Canis lupus familiaris; conditions: route oral
Canis familiaris [30] = test: Percent change of heart rate in anesthetized dog at 0.031 mg/kg; assay type: functional, Canis lupus familiaris

SMILES: CC1(C)C(=O)NN=C1c1ccncc1
- ED50 (Canis familiaris [1]): 0.3 mg/kg
- Change (Canis familiaris [2]): 1%
- Change (Canis familiaris [3]): 11%

SMILES: CC1CC(c2ccc(-n3ccnc3)cc2)=NNC1=O (stereo not drawn)
- Dose (Canis familiaris [5]): 0.5 mg/kg

SMILES: O=C1CCC(c2ccc(-n3ccnc3)cc2)=NN1 [IMAZODAN]
- Change (Canis familiaris [6]): -0.7%
- Dose (Canis familiaris [7]): 0.045 mg/kg
- Change (Canis familiaris [8]): 19.2%
- Change (Canis familiaris [9]): -22.4%
- Change (Canis familiaris [10]): 10.2%
- Change (Canis familiaris [11]): 74.2%
- Change (Canis familiaris [12]): -4.1%
- Change (Canis familiaris [13]): 5.6%
- Change (Canis familiaris [14]): 146.7%
- Increase contractility (Canis familiaris [15]): 40%
- Change (Canis familiaris [16]): -13.2%
- Change (Canis familiaris [17]): 127.3%
- Change (Canis familiaris [18]): 0%
- Change (Canis familiaris [19]): 6.2%
- Change (Canis familiaris [20]): 33.8%
- Change (Canis familiaris [21]): 37.2%
- Increase contractility (Canis familiaris [22]): 10%
- Change (Canis familiaris [23]): -5.3%
- Dose (Canis familiaris [24]): 0.045 mg/kg

SMILES: CC1(C)CC(=O)NN=C1c1ccc(-n2ccnc2)cc1
- Dose (Canis familiaris [5]): 0.2 mg/kg

SMILES: CC1CC(O)=NN=C1c1ccc(-n2ccnc2)cc1 (stereo not drawn) [CI-930]
- Dose (Canis familiaris [26]): 0.013 mg/kg

SMILES: CSc1ccc(C2=NNC(=O)C2(C)C)cc1
- ED50 (Canis familiaris [1]): 0.35 mg/kg
- Change (Canis familiaris [2]): -1%
- Change (Canis familiaris [3]): 5%

SMILES: CC1(C)CC(c2ccc(-n3ccnc3)cc2)=NNC1=O
- Dose (Canis familiaris [5]): 0.05 mg/kg

More lines, main results first:

- IC50 [4]: 270 µM
SMILES: CCC1C(=O)NN=C1c1ccc(-n2ccnc2)cc1 (stereo not drawn)
- ED50 (Canis familiaris [1]): > 1 mg/kg
- Change (Canis familiaris [2]): 0%
- Change (Canis familiaris [3]): 0%

- IC50 [25]: 140 µM
SMILES: CC1C(=O)NN=C1c1ccc(-n2ccnc2)cc1 (stereo not drawn)
- ED50 (Canis familiaris [1]): > 1 mg/kg
- Change (Canis familiaris [2]): 0%
- Change (Canis familiaris [3]): 0%

- IC50 [4]: 52 µM
SMILES: CCC1(C)C(=O)NN=C1c1ccc(-n2ccnc2)cc1 (stereo not drawn)
- ED50 (Canis familiaris [1]): 0.37 mg/kg
- Change (Canis familiaris [2]): 6%
- Change (Canis familiaris [3]): 17%

- IC50 [4]: 590 µM
SMILES: O=C1CC(c2ccc(-n3ccnc3)cc2)=NN1
- ED50 (Canis familiaris [1]): > 1 mg/kg
- Change (Canis familiaris [2]): 0%
- Change (Canis familiaris [3]): 0%

- IC50 [4]: 54 µM
SMILES: O=C1NN=C(c2ccc(-n3ccnc3)cc2)C12CCCC2
- ED50 (Canis familiaris [1]): 1 mg/kg
- Change (Canis familiaris [2]): -0.25%
- Change (Canis familiaris [3]): 3.5%

- IC50 [4]: 120 µM
SMILES: CCC1(CC)C(=O)NN=C1c1ccc(-n2ccnc2)cc1
- ED50 (Canis familiaris [1]): > 1 mg/kg
- Change (Canis familiaris [2]): 0%
- Change (Canis familiaris [3]): 0%

- IC50 [4]: 22 µM
SMILES: CC1(C)C(=O)NN=C1c1ccc(-n2ccnc2)cc1
- Change (Canis familiaris [27]): 10%
- Dose (Canis familiaris [26]): 0.18 mg/kg
- Change (Canis familiaris [6]): -0.5%
- Change (Canis familiaris [28]): 39%
- Change (Canis familiaris [8]): 9%
- Change (Canis familiaris [9]): -34%
- ED50 (Canis familiaris [1]): 0.18 mg/kg
- Change (Canis familiaris [10]): 6%
- Change (Canis familiaris [12]): -4%
- Change (Canis familiaris [14]): 100%
- Change (Canis familiaris [16]): -20%
- Change (Canis familiaris [2]): -14%
- Change (Canis familiaris [17]): 78%
- Change (Canis familiaris [18]): 0%
- Change (Canis familiaris [19]): 0.8%
- Change (Canis familiaris [20]): 14%
- Change (Canis familiaris [29]): 24%
- Change (Canis familiaris [3]): 4.9%
- Change (Canis familiaris [23]): -11%
- Change (Canis familiaris [30]): 0.2%

- IC50 [4]: 3.2 µM
SMILES: CC1(C)C(=O)NN=C1c1ccc(-n2cnc3c2CCCC3)cc1
- ED50 (Canis familiaris [1]): 0.2 mg/kg
- Change (Canis familiaris [2]): -10%
- Change (Canis familiaris [3]): 10%
